The values that follow come from publication PMC8103899, “Allyl Isothiocyanate: A TAS2R38 Receptor-Dependent Immune Modulator at the Interface Between Personalized Medicine and Nutrition” (Frontiers in Immunology, 2021).

Data set [1] relates to p-ERK1/2, p-p38, p-Akt. In words: Immunoblotting of MAPK and AKT phosphorylation in PBMC. Format: cell-based, human. On the procedure:
Proteins of interest were analyzed by immunoblotting as described before ([36]). Densitometric analysis was done to quantify the immunoblots using Quantity One software (Bio-Rad, Munich, Germany) and normalized against β-actin.
Figure 4 AITC mediates MAPK down-stream signaling in dependence of the TAS2R38 haplotype. (A, B) PBMC were treated with test compounds for the indicated time points and pellets were collected for protein expression analysis. Representative immunoblots are given. Densitometric analysis was done to quantify the immunoblots using Quantity One software (Bio-Rad, Munich, Germany) and normalized against β-actin, which was used as loading control. The graphs show phosphorylated ERK1/2, p-38 or Akt, protein levels relative to control as quantified by pixel densitometry. Bars are mean + SD; *p < 0.05, **p < 0.01 (n ≥ 2). Significance of difference was calculated relative to the corresponding solvent control determined by one-way ANOVA (SC, 0.01% DMSO).
(§1) Figure 5 In bacterial LPS stimulated PBMC, AITC triggers MAPK activation and TNF-α inhibition in dependence of the TAS2R38 genotype. PBMC were exposed to AITC or 0.01% DMSO (SC) together with 100 pg/mL LPS. (A) Representative immunoblots are given. Densitometric analysis was done to quantify the immunoblots using Quantity One software (Bio-Rad, Munich, Germany) and normalized against β-actin, which was used as loading control. (B, C) Cytokine secretion at 3 and 24 h was analyzed using ELISA kits. (D) Time kinetic of TNF-α mRNA expression. Results are means + SD and given as fold of the solvent control. Results were calculated relative to the corresponding solvent control (SC, 0.01% DMSO). Significance of difference was determined compared to the respective SC by one-way ANOVA, *p < 0.05, **p < 0.01.
On the technique in general: A western blot detects proteins with antibodies after separation by electrophoresis.

The test system of data set [2] is IL-1β. Put plainly: IL-1β release of LPS stimulated PBMC (ELISA). The data set is classed as cell-based, human. The note with it: LPS activated PBMC. On the procedure: PBMC (1x10^6/mL) cultured in RPMI 1640 medium supplemented with 10% heat-inactivated fetal calf serum, 2 mM L-glutamine, 100 U/ml penicillin/streptomycin were stimulated with 0.5 ng/ml CD3/CD28 MAbs and exposed to the test compounds. After 24 h, supernatants were collected and stored at -80°C until analysis using the human MACSplex cytokine 12-kit (Miltenyi Biotec GmbH, Bergisch Gladbach, Germany) according to manufacturer’s protocol to quantify cytokine secretion. Supernatants were also used for photometric quantification by the human TNF-alpha or IL-1β ELISA Ready-Set-Go kit from eBIoscience (Frankfurt, Germany) according to the manufacturer’s instructions.
as §1, with “(D) Time kinetic of TNF-α mRNA expression. Results are means + SD and given as fold of the solvent control.” left out
For orientation: An ELISA detects its analyte on a solid surface through an enzyme-linked reagent.

Details of data set [3]: method as in PMID 26317351. The conditions noted are these: rats, oral dosing; cited from earlier work.
Data set [4] has as its system TAS2R38 receptor. Put plainly: Calcium flux assay in human PBMC (flow cytometry, Fluo-4 AM). The note with it: PAV/AVI. (In general: Calcium flux is commonly read through the fluorescence of an indicator in the cells.)
Data set [5] has as its target TAS2R38 receptor (Homo sapiens, UniProt P59533, A262V). The data set is described as above. The note with it: AVI/AVI, 100 µM AITC.
For data set [6], the target named is T1, TAS2R38 receptor (Homo sapiens, UniProt P59533, A49P/I296V).
T1 sequence (P59533 1-333 A49P/I296V): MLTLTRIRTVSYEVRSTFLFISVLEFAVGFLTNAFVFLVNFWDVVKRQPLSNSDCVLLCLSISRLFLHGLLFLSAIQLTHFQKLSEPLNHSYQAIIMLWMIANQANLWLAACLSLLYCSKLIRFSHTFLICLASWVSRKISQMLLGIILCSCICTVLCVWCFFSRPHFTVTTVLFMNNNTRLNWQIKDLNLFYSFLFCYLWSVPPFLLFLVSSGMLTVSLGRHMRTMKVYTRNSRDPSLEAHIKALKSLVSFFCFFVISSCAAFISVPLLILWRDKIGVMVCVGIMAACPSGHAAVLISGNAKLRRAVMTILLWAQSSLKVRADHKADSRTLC
Described as above.

A value given as a limit tells only on which side of the number the result lay.

Sequence of TAS2R38 receptor (Homo sapiens, UniProt P59533, A262V) (P59533 whole entry A262V): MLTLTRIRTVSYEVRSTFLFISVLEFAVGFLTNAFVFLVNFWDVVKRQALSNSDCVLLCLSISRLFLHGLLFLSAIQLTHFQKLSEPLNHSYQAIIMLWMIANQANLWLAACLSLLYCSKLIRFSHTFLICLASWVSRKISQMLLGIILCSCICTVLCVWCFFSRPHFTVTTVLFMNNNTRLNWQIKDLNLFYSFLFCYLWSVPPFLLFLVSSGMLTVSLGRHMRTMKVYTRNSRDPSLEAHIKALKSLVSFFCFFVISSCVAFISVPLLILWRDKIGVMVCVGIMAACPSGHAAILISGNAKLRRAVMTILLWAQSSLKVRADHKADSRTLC

As to `C=CCN=C=S` [AITC, allyl isothiocyanate], the “p-ERK, p-p38 and p-Akt phosphorylation” value in data set [1] (5 min, 100 pg/mL LPS and AITC, PAV/PAV subjects) is “upregulation”. Besides, in data set [1] (PBMC, PAV/PAV group, in contrast to AVI/AVI), the “p-ERK1/2 and p-p38 phosphorylation” value is listed as “quick activation (5 min. AITC exposure), followed by dephosphorylation”. Further, the p-Akt phosphorylation entry in data set [1] (PBMC, in dependence of the TAS2R38 genotype) is “same activation/inactivation pattern”. Besides, the “release of IL-1β” value in data set [2] is “suppressed in both AVI/AVI and PAV/PAV groups”. Also, the “time to peak plasma level” value in data set [3] is reported as ≤ 0.5 h. Moreover, the calcium influx in data set [4] (lymphocytes, 100 µM AITC) came to 21%; in data set [5] (lymphocytes), 24%; in data set [6] (PAV/PAV cells, 0.01 µM AITC (increase between 0.01 to 1 µM)) it was 28%; in data set [6] (PAV/PAV cells, 1 µM AITC (increase between 0.01 to 1 µM)), 35%; in data set [6] (PAV/PAV cells, 10 µM AITC (increase between 10-100 µM)), 45%; in data set [6] (PAV/PAV cells, 100 µM AITC (increase between 10-100 µM)), 72%. Besides, the calcium influx in data set [6] (lymphocytes, PAV/PAV, 1 µM AITC) stood at 25%. Also, the “calcium flux (statistically significant)” value amounted to 18% in data set [4] (monocytes, 10 µM AITC); 20% in data set [5] (monocytes); 22% in data set [6] (monocytes, PAV/PAV, 0.01 µM AITC). Moreover, in data set [6] (monocytes, calcium flux), the threshold concentration is reported as 10 nM.
